# Test system: 3D InSight™ Human Islet Microtissues
# Test: Glucose-stimulated insulin secretion (GSIS) after 13 days of glucolipotoxicity (GLTX) induced islet injury
# Type: cell-based
# Details: GSIS at 16.7 mM glucose, vs GLTX group
Molecule,"glucose-stimulated insulin secretion (GSIS) (FIG. 2, long-term (13 days) treatment with 1 μM semaglutide alone in glucolipotox medium)","glucose-stimulated insulin secretion (GSIS) (FIG. 3, long-term (13 days) treatment with 10 μM verapamil alone in glucolipotox medium)"
semaglutide,does not improve the GSIS,–
COc1ccc(CCN(C)CCCC(C#N)(c2ccc(OC)c(OC)c2)C(C)C)cc1OC (centres unmarked) [verapamil],–,has a positive influence on GSIS

# Reference: US20230330188A1, “PHARMACEUTICAL COMBINATION FOR USE IN THE TREATMENT AND/OR PREVENTION OF DIABETES” (INSPHERO AG, priority 2020, published 2023)
